In US11999718B2, “Pyrazole derivatives” (Aptabio Therapeutics Inc., priority 2021, dated 2024):

Tested on: HL-60 cells differentiated into neutrophil cells
Experiment: ROS production induced by PMA in HL-60 cells differentiated into neutrophil cells
Assay type: cell-based
Conditions: Homo sapiens, 0.5 h; differentiated HL-60 cells, compounds 0.5 uM (0.5 mM in the source) for 30 minutes, 200 nM PMA, L-012 luminescence
From the text: In order to confirm the effect of the compounds of Synthetic examples on ROS production from fibroblasts and specific substrate cells, ROS production was induced by stimulation of PMA (phorbol 12-myristate 13-acetate), TGF-β1, palmitate or high concentration-glucose, or the like, in HL-60 cells differentiated into neutrophil cells by DMSO treatment, NHLF (normal human lung fibroblast, Lonza), LX-2 (human hepatic stellate cells, Sigma), ARPE19 (human retinal pigment epithelial cell, ATCC), and KEL-FIB (Keloid fibroblast, ATCC) cells, and under this condition, the inhibitory effect of ROS production of the compounds of Synthetic Examples was observed.
HL-60 cells (human leukemia cells, ATCC) were suspended in a medium containing 1.25% DMSO (RPMI+10% FBS) and cultured under the condition of 5% CO2, 37° C. for 6 days, thereby inducing differentiation into neutrophil cells. […] Then, to each well comprising the cells and drug, 200 nM PMA was treated to induce ROS production, and such ROS production was measured by observing the luminescence level of each well using 100 μM L-012.

SMILES: CN(Cc1cccc(F)c1)C1CCc2nn(-c3ccccn3)c(O)c2C1 (stereo not shown) [Compound 27, 5-[(3-Fluorobenzyl)methylamino]-2-(pyridin-2-yl)-4,5,6,7-tetrahydro-2H-indazol-3-ol]
- inhibition at 0.5 µM: 30 to 50%

SMILES: COc1ccc(CN(C)C2CCc3nn(-c4ccccn4)c(O)c3C2)cc1 (stereo not shown) [Compound 28, 5-[(4-Methoxybenzyl)methylamino]-2-(pyridin-2-yl)-4,5,6,7-tetrahydro-2H-indazol-3-ol]
- inhibition at 0.5 µM: 50 to 70%

SMILES: Oc1c2c(nn1-c1ccccn1)CCC(N1CCN(Cc3ccccc3)CC1)C2 (stereo not shown) [Compound 105, 5-(4-Benzylpiperazin-1-yl)-2-(pyridin-2-yl)-4,5,6,7-tetrahydro-2H-indazol-3-ol]
- inhibition at 0.5 µM: > 70%

SMILES: CN1CCN(C2CCc3nn(-c4ccc(Cl)cc4)c(O)c3C2)CC1 (stereo not shown) [Compound 94, 2-(4-Chlorophenyl)-5-(4-methylpiperazin-1-yl)-4,5,6,7-tetrahydro-2H-indazol-3-ol]
- inhibition at 0.5 µM: > 70%

SMILES: Oc1c2c(nn1-c1ccccn1)CCC(N1CCN(Cc3ccc4ncccc4c3)CC1)C2 (stereo not shown) [Compound 90, 2-(Pyridin-2-yl)-5-(4-(quinolin-6-ylmethyl)piperazin-1-yl)-4,5,6,7-tetrahydro-2H-indazol-3-ol]
- inhibition at 0.5 µM: > 70%

SMILES: CN(Cc1ccccc1Cl)C1CCc2nn(-c3ccccn3)c(O)c2C1 (stereo not shown) [Compound 6, 5-[(2-Chlorobenzyl)methylamino]-2-(pyridin-2-yl)-4,5,6,7-tetrahydro-2H-indazol-3-ol]
- inhibition at 0.5 µM: > 70%

SMILES: CN(C)C/C=C/C(=O)N(C)C1CCc2nn(-c3ccccn3)c(O)c2C1 (stereo not shown) [Compound 99, (E)-4-(dimethylamino)-N-(3-hydroxy-2-(pyridin-2-yl)-4,5,6,7-tetrahydro-2H-indazol-5-yl)-N-methylbut-2-enamide]
- inhibition at 0.5 µM: 50 to 70%

SMILES: CN(C)C/C=C/C(=O)N1CCN(C2CCc3nn(-c4ccccn4)c(O)c3C2)CC1 (stereo not shown) [Compound 98, (E)-4-(dimethylamino)-1-(4-(3-hydroxy-2-(pyridin-2-yl)-4,5,6,7-tetrahydro-2H-indazol-5-yl)piperazin-1-yl)but-2-en-1-one]
- inhibition at 0.5 µM: 50 to 70%

SMILES: Oc1c2c(nn1-c1ccccn1)CCC(Nc1ccccc1)C2 (stereo not shown) [Compound 92, 5-(Phenylamino)-2-(pyridin-2-yl)-4,5,6,7-tetrahydro-2H-indazol-3-ol]
- inhibition at 0.5 µM: 30 to 50%

SMILES: CN1CCN(C2CCc3nn(-c4nccc5sccc45)c(O)c3C2)CC1 (stereo not shown) [Compound 85, 5-(4-Methylpiperazin-1-yl)-2-(thieno[3,2-c]pyridin-4-yl)-4,5,6,7-tetrahydro-2H-indazol-3-ol]
- inhibition at 0.5 µM: 50 to 70%

SMILES: CN(Cc1ccc(Cl)cc1)C1CCc2nn(-c3ccccn3)c(O)c2C1 (stereo not shown) [Compound 19, 5-[(4-Chlorobenzyl)methylamino]-2-(pyridin-2-yl)-4,5,6,7-tetrahydro-2H-indazol-3-ol]
- inhibition at 0.5 µM: > 70%

SMILES: Oc1c2c(nn1-c1ccccn1)CCC(NCCc1ccccc1)C2 (stereo not shown) [Compound 93, 5-(Penethylamino)-2-(pyridin-2-yl)-4,5,6,7-tetrahydro-2H-indazol-3-ol]
- inhibition at 0.5 µM: 30 to 50%

SMILES: C=CC(=O)N1CCN(C2CCc3nn(-c4ccccn4)c(O)c3C2)CC1 (stereo not shown) [Compound 97, 1-(4-(3-Hydroxy-2-(pyridin-2-yl)-4,5,6,7-tetrahydro-2H-indazol-5-yl)piperazin-1-yl)prop-2-en-1-one]
- inhibition at 0.5 µM: 50 to 70%

SMILES: CN1CCN(C2CCc3nn(-c4ccc(C#N)cc4)c(O)c3C2)CC1 (stereo not shown) [Compound 103, 4-(3-Hydroxy-5-(4-methylpiperazin-1-yl)-4,5,6,7-tetrahydro-2H-indazol-2-yl)benzonitrile]
- inhibition at 0.5 µM: > 70%

SMILES: Oc1c2c(nn1-c1ccccn1)CCC(N1CCc3ccccc3C1)C2 (stereo not shown) [Compound 18, 5-(3,4-Dihydro-1H-isoquinolin-2-yl)-2-(pyridin-2-yl)-4,5,6,7-tetrahydro-2H-indazol-3-ol]
- inhibition at 0.5 µM: > 70%

SMILES: Cc1ccc(N2CCN(C3CCc4nn(-c5ccccn5)c(O)c4C3)CC2)cc1 (stereo not shown) [Compound 126, 2-(Pyridin-2-yl)-5-(4-(p-tolyl)piperazin-1-yl)-4,5,6,7-tetrahydro-2H-indazol-3-ol]
- inhibition at 0.5 µM: > 70%

SMILES: Oc1c2c(nn1-c1ccccn1)CCC(N1CCOCC1)C2 (stereo not shown) [Compound 15, 5-Morpholino-4-yl-2-(pyridin-2-yl)-4,5,6,7-tetrahydro-2H-indazol-3-ol]
- inhibition at 0.5 µM: > 70%

SMILES: Cc1cc(C(F)(F)F)cc(-n2nc3c(c2O)CC(N2CCN(C)CC2)CC3)n1 (stereo not shown) [Compound 84, 2-(6-Methyl-4-(trifluoromethyl)pyridin-2-yl)-5-(4-methylpiperazin-1-yl)-4,5,6,7-tetrahydro-2H-indazol-3-ol]
- inhibition at 0.5 µM: 50 to 70%

SMILES: Oc1c2c(nn1-c1ccccn1)CCC(N1CCN(CC3CCCCC3)CC1)C2 (stereo not shown) [Compound 106, 5-(4-(Cyclohexylmethyl)piperazin-1-yl)-2-(pyridin-2-yl)-4,5,6,7-tetrahydro-2H-indazol-3-ol]
- inhibition at 0.5 µM: > 70%

SMILES: Oc1c2c(nn1-c1ccccn1)CCC(N1CCN(CCCc3ccccc3)CC1)C2 (stereo not shown) [Compound 107, 5-(4-(3-Phenylpropyl)piperazin-1-yl)-2-(pyridin-2-yl)-4,5,6,7-tetrahydro-2H-indazol-3-ol]
- inhibition at 0.5 µM: > 70%

SMILES: CCN(Cc1ccccc1)C1CCc2nn(-c3ccccn3)c(O)c2C1 (stereo not shown) [Compound 20, 5-(Benzylethylamino)-2-(pyridin-2-yl)-4,5,6,7-tetrahydro-2H-indazol-3-ol]
- inhibition at 0.5 µM: 30 to 50%

SMILES: CN1CCN(C2CCc3nn(-c4ncccc4F)c(O)c3C2)CC1 (stereo not shown) [Compound 86, 2-(3-Fluoropyridin-2-yl)-5-(4-methylpiperazin-1-yl)-4,5,6,7-tetrahydro-2H-indazol-3-ol]
- inhibition at 0.5 µM: 30 to 50%

SMILES: CN(Cc1cccc(Cl)c1)C1CCc2nn(-c3ccccn3)c(O)c2C1 (stereo not shown) [Compound 7, 5-[(3-Chlorobenzyl)methylamino]-2-(pyridin-2-yl)-4,5,6,7-tetrahydro-2H-indazol-3-ol]
- inhibition at 0.5 µM: > 70%

SMILES: CN1CCN(C2CCc3nn(-c4cccc(Cl)n4)c(O)c3C2)CC1 (stereo not shown) [Compound 83, 2-(6-Chloropyridin-2-yl)-5-(4-methylpiperazin-1-yl)-4,5,6,7-tetrahydro-2H-indazol-3-ol]
- inhibition at 0.5 µM: > 70%

SMILES: Oc1c2c(nn1-c1ccccn1)CCC(N1CCN(Cc3ccccn3)CC1)C2 (stereo not shown) [Compound 87, 2-(Pyridin-2-yl)-5-(4-(pyridin-2-ylmethyl)piperazin-1-yl)-4,5,6,7-tetrahydro-2H-indazol-3-ol]
- inhibition at 0.5 µM: 50 to 70%

SMILES: CCN1CCN(C2CCc3nn(-c4ccccn4)c(O)c3C2)CC1 (stereo not shown) [Compound 91, 5-(4-Ethylpiperazin-1-yl)-2-(pyridin-2-yl)-4,5,6,7-tetrahydro-2H-indazol-3-ol]
- inhibition at 0.5 µM: 50 to 70%

SMILES: COc1ccccc1CN(C)C1CCc2nn(-c3ccccn3)c(O)c2C1 (stereo not shown) [Compound 26, 5-[(2-Methoxybenzyl)-methylamino]-2-(pyridin-2-yl)-4,5,6,7-tetrahydro-2H-indazol-3-ol]
- inhibition at 0.5 µM: < 30%

SMILES: COc1ccc(N2CCN(C3CCc4nn(-c5ccccn5)c(O)c4C3)CC2)cc1 (stereo not shown) [Compound 129, 5-(4-(4-Methoxyphenyl)piperazin-1-yl)-2-(pyridin-2-yl)-4,5,6,7-tetrahydro-2H-indazol-3-ol]
- inhibition at 0.5 µM: > 70%

SMILES: CN(Cc1cccc(C#N)c1)C1CCc2nn(-c3ccccn3)c(O)c2C1 (stereo not shown) [Compound 25, 3-{[(3-Hydroxy-2-(pyridin-2-yl)-4,5,6,7-tetrahydro-2H-indazol-5-yl)methylamino]methyl}benzonitrile]
- inhibition at 0.5 µM: 30 to 50%

SMILES: CN(Cc1ccccc1C(F)(F)F)C1CCc2nn(-c3ccccn3)c(O)c2C1 (stereo not shown) [Compound 11, 5-[Methyl-(2-trifluoromethylbenzyl)-amino]-2-pyridin-2-yl-4,5,6,7-tetrahydro-2H-indazol-3-ol]
- inhibition at 0.5 µM: < 30%

SMILES: CC#CC(=O)N1CCN(C2CCc3nn(-c4ccccn4)c(O)c3C2)CC1 (stereo not shown) [Compound 89]
- inhibition at 0.5 µM: > 70%

SMILES: CN1CCN(c2cc(CN(C)C3CCc4nn(-c5ccccn5)c(O)c4C3)ncn2)CC1 (stereo not shown) [Compound 34, 5-{methyl-[6-(4-methyl-piperazin-1-yl)-pyrimidin-4-ylmethyl]-amino}-2-pyridin-2-yl-4,5,6,7-tetrahydro-2H-indazol-3-ol]
- inhibition at 0.5 µM: 30 to 50%

SMILES: CN(Cc1ccc(F)cc1)C1CCc2nn(-c3ccccn3)c(O)c2C1 (stereo not shown) [Compound 4, 5-[(4-Fluorobenzyl)methylamino]-2-(pyridin-2-yl)-4,5,6,7-tetrahydro-2H-indazol-3-ol]
- inhibition at 0.5 µM: > 70%

SMILES: CN(C)c1ccc(CN(C)C2CCc3nn(-c4ccccn4)c(O)c3C2)cc1 (stereo not shown) [Compound 70, 5-[(4-Dimethylamino)benzylmethylamino]-2-(pyridin-2-yl)-4,5,6,7-tetrahydro-2H-indazol-3-ol]
- inhibition at 0.5 µM: 30 to 50%

SMILES: CS(=O)(=O)c1ccc(N2CCN(C3CCc4nn(-c5ccccn5)c(O)c4C3)CC2)cc1 (stereo not shown) [Compound 131, 5-(4-(4-(Methylsulfonyl)phenyl)piperazin-1-yl)-2-(pyridin-2-yl)-4,5,6,7-tetrahydro-2H-indazol-3-ol]
- inhibition at 0.5 µM: > 70%

SMILES: CN(C)c1ccccc1CN(C)C1CCc2nn(-c3ccccn3)c(O)c2C1 (stereo not shown) [Compound 71, 5-[(2-Dimethylamino)benzylmethylamino]-2-(pyridin-2-yl)-4,5,6,7-tetrahydro-2H-indazol-3-ol]
- inhibition at 0.5 µM: 50 to 70%

SMILES: CCCN(Cc1ccccc1)C1CCc2nn(-c3ccccn3)c(O)c2C1 (stereo not shown) [Compound 21, 5-(Benzylpropylamino)-2-(pyridin-2-yl)-4,5,6,7-tetrahydro-2H-indazol-3-ol]
- inhibition at 0.5 µM: 30 to 50%
